Laboratory results reported in ChEMBL document CHEMBL1141419, “N-(5-Fluoro-2-phenoxyphenyl)-N-(2-[(131)I]iodo-5-me thoxybenzyl)acetamide: a potent iodinated radioligand for the peripheral-type benzodiazepine receptor in brain” (J Med Chem, 2007).

How the values were obtained:
Translocator protein [1] = biological target: T1, Translocator protein (Rattus norvegicus, UniProt P16257); assay: Displacement of [11C]PK-11195 from PBR in Sprague-Dawley rat brain; type: tissue-based
[2] = Distribution coefficient, log D at pH 7.4 by shake flask method; type: physicochemical; settings: octanol/water
Translocator protein [3] = biological target: T1, Translocator protein; assay: Displacement of [11C]DAA1106 from PBR in Sprague-Dawley rat brain; type: tissue-based
Rattus norvegicus = species: Rattus norvegicus; assay: Displacement of [11C]flumazenil from CBR in Sprague-Dawley rat brain
[4] = Ratio of drug level in choroids plexus against striatum in Sprague-Dawley rat after 30 mins; type: ADME, tissue-based; settings: in vivo, 0.5 h
[5] = Ratio of drug level in olfactory bulb against striatum in Sprague-Dawley rat after 30 mins; type: ADME, tissue-based; settings: in vivo, 0.5 h
[6] = Stability in iv dosed ddy mouse brain after 30 min; type: ADME, organism-based; settings: read-out: Stability

T1 sequence (P16257 whole entry, looked up): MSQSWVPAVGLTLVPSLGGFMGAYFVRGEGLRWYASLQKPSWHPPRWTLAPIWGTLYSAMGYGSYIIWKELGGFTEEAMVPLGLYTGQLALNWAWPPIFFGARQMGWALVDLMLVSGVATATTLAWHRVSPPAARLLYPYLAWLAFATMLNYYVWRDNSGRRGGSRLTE

| SMILES | IC50 (Translocator protein [1]) [nM] | logD [2] | IC50 (Translocator protein [3]) [nM] | IC50 (Rattus norvegicus) [nM] | Ratio [4] | Ratio [5] | remaining at 0.5 h [6] [%] |
| --- | --- | --- | --- | --- | --- | --- | --- |
| CCC(C)N(C)C(=O)c1cc2ccccc2c(-c2ccccc2Cl)n1 (centres undefined) |  |  |  | > 10000 |  |  |  |
| COc1ccc([131I])c(CN(C(C)=O)c2cc(F)ccc2Oc2ccccc2)c1 |  |  |  |  | 3.2 | 1.5 | 90 |

The remaining lines, values ahead:

| IC50 (Translocator protein [1]) [nM] | logD [2] | IC50 (Translocator protein [3]) [nM] | IC50 (Rattus norvegicus) [nM] | Ratio [4] | Ratio [5] | remaining at 0.5 h [6] [%] | SMILES |
| --- | --- | --- | --- | --- | --- | --- | --- |
| 60.1 | 4.03 | 69.2 | > 10000 |  |  |  | COc1ccc(OC)c(CN(C(C)=O)c2cc(I)ccc2Oc2ccccc2)c1 |
| 4.4 | 4.42 | 7.8 | > 10000 |  |  |  | COc1ccc(I)c(CN(C(C)=O)c2cc(F)ccc2Oc2ccccc2)c1 |
| 1.3 |  |  | > 10000 |  |  |  | COc1ccc(OC)c(CN(C(C)=O)c2cc(F)ccc2Oc2ccccc2)c1 |
